Data on 29 compounds can be found in patent EP0679645A1, “Pharmacologically active CNS pyridmidin compounds” (THE WELLCOME FOUNDATION LIMITED, priority 1990, dated 1991).

The target of series [1] is T1, Rat Liver DHFR (Rattus norvegicus, UniProt Q920D2).
T1 construct: from tissue; host or cells: rat liver
T1 sequence (Q920D2 1-187): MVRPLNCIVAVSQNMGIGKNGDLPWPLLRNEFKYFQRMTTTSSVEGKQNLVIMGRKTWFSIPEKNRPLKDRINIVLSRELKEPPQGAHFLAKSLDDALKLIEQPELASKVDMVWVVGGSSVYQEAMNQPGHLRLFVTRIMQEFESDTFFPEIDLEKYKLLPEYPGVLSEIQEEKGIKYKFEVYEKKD
Kind of series: Inhibition of rat liver DHFR enzyme activity. It is filed as biochemical. Conditions: P95 limits in brackets, read-out: IC₅₀(µM) Rat Liver DHFR (P95 limits). The protocol: (§1) Compounds according to the invention were tested for their effect on veratrine-evoked release of glutamate from rat brain slices according to the protocol described in Epilepsia 27(5): 490-497, 1986. The protocol for testing for inhibition of DHFR activity was a modification of that set out in Biochemical Pharmacology Vol. 20 pp 561-574, 1971.
(§2) The results are given in Table 1, the IC₅₀ being the concentration of compound to cause 50% inhibition of (a) veratrine-evoked release of glutamate and (b) of DHFR enzyme activity.

In series [2] the test system is veratrine-evoked release of glutamate. Put plainly: Inhibition of veratrine-evoked release of glutamate from rat brain slices. Conditions: P95 limits in brackets, read-out: IC₅₀(µM) Glutamate Release (P95 limits). It is filed as cell-based. How it is done: as §1, §2
Series [3] can be described thus: Half-life in the rat. It is filed as in vivo. As to conditions: statement in words.

Regarding `CN1CCN(c2nc(N)ncc2-c2cccc(Cl)c2Cl)CC1` [Compound 20, 2-Amino-5-(2,3-dichlorophenyl)-4-(4-methyl-1-piperazinyl)pyrimidine], the results for the IC50 in series [1] and in series [2] were > 100 µM and 10 µM, respectively.
With `CCCN1CCN(c2ncc(-c3cc(Cl)cc(Cl)c3Cl)c(N)n2)CC1` [Compound 17, 4-Amino-2-(4-n-propyl-1-piperazinyl)-5-(2,3,5-trichlorophenyl)pyrimidine], the IC50 was > 100 µM in series [1] and 2.17 µM in series [2].
Take `C[N+]1([O-])CCN(c2nc(N)c(-c3cc(Cl)cc(Cl)c3Cl)c(C(F)(F)F)n2)CC1` [Compound 10, 4-Amino-2-(4-methyl-4-oxide-1-piperazinyl)-5-(2,3,5-trichlorophenyl)-6-trifluoromethyl-pyrimidine]: the IC50 in series [1] is > 100 µM; in series [2] it was > 10 µM.
Consider `C[N+]1([O-])CCN(c2ncc(-c3cc(Cl)cc(Cl)c3Cl)c(N)n2)CC1` [Compound 18, 4-Amino-2-(4-methyl-4-oxide-1-piperazinyl)-5-(2,3,5-trichlorophenyl)pyrimidine], for which the IC50 is > 100 µM in series [1] and > 10 µM in series [2].
For the compound `Nc1ncc(-c2cc(Cl)c(I)c(Cl)c2Cl)c(N)n1` [Compound 9, 2,4-Diamino-5-(4-iodo-2,3,5-trichlorophenyl)pyrimidine], the IC50 in series [1] is > 100 µM; in series [2], < 10 µM.
For `CC(C)Nc1ncc(-c2cc(Cl)cc(Cl)c2Cl)c(N)n1` [Compound 7, 4-Amino-2-(2-iso-propylamino)-5-(2,3,5-trichlorophenyl)pyrimidine], the IC50 is > 100 µM in series [1] and < 10 µM in series [2].
`Nc1nc(N2CCN(Cc3ccccc3)CC2)ncc1-c1cc(Cl)cc(Cl)c1Cl` [Compound 22, 4-Amino-2-(4-benzyl-1-piperazinyl)-5-(2,3,5-trichlorophenyl)pyrimidine]: the IC50 is < 100 µM in series [1] and > 10 µM in series [2].
`CN(C)S(=O)(=O)c1c(Cl)cc(-c2cnc(N)nc2N)c(Cl)c1Cl` [Compound 12, 2,4-Diamino-5[4-(N',N'-dimethylsulphamoyl)-2,3,5-trichlorophenyl]pyrimidine]: the IC50 is 13.8 µM in series [1] and < 10 µM in series [2].
The like results for `C[C@@H]1CN(c2ncc(-c3cc(Cl)cc(Cl)c3Cl)c(N)n2)C[C@H](C)N1` [Compound 16, cis 4-Amino-2-(3,5-dimethyl-1-piperazinyl)-5-(2,3,5-trichlorophenyl)pyrimidine] were, in that order, > 100 µM and 10 µM.
Regarding `CCN(CC)c1ncc(-c2cc(Cl)cc(Cl)c2Cl)c(N)n1` [Compound 6, 4-Amino-2-diethylamino-5-(2,3,5-trichlorophenyl)pyrimidine], the IC50 in series [1] was > 100 µM; in series [2], 10 µM.
Turning to `CCCCN1CCN(c2ncc(-c3cc(Cl)cc(Cl)c3Cl)c(N)n2)CC1` [Compound 28, 4-Amino-2-(4-n-butyl-1-piperazinyl)-5-(2,3,5-trichlorophenyl)pyrimidine], the results for the IC50 in series [1] and in series [2] were > 100 µM and < 10 µM, respectively.
For `Nc1ncc(-c2cccc(Cl)c2Cl)c(N2CCOCC2)n1` [Compound 21, 2-Amino-5-(2,3-dichlorophenyl)-4-(N-morpholino)pyrimidine], the values for the IC50 in series [1] and in series [2] were > 100 µM and 10 µM, respectively.
Consider `CN1CCN(c2ncc(-c3cc(Cl)cc(Cl)c3)c(N)n2)CC1` [Compound 8, 4-Amino-5-(3,5-dichlorophenyl)-2-(4-methyl-1-piperazinyl)pyrimidine], for which the IC50 is > 100 µM in series [1] and 0.27 µM in series [2]. Moreover, the “half-life in the rat” value in series [3] is recorded as “long half-life”.
With `Cc1nc(N)nc(N)c1-c1cc(Cl)c(N)c(Cl)c1` [Compound 26, 2,4-Diamino-5-(3,5-dichloro-4-aminophenyl)-6-methyl pyrimidine], the IC50 was 0.034 µM in series [1] and < 10 µM in series [2].
With `COCc1nc(N2CCN(C)CC2)nc(N)c1-c1cc(Cl)cc(Cl)c1` [Compound 11, 4-Amino-5-(3,5-dichlorophenyl)-6-methoxymethyl-2-(4-methyl-1-piperazinyl)pyrimidine], the IC50 is > 100 µM in series [1] and < 10 µM in series [2].
Take `Nc1nc(N2CCN(C3CC3)CC2)ncc1-c1cc(Cl)cc(Cl)c1Cl` [Compound 31, 4-Amino-2-(4-cyclopropyl-1-piperazinyl)-5-(2,3,5-trichlorophenyl)pyrimidine]: the IC50 in series [1] is > 100 µM; in series [2] it was 10 µM.
With `Nc1ncc(-c2cc(Cl)c(N)c(Cl)c2Cl)c(N)n1` [Compound 3, 2,4-Diamino-5-(4-amino-2,3,5-trichlorophenyl)pyrimidine], the IC50 was > 100 µM in series [1] and 2.5 µM in series [2].
Regarding `CC(C)N1CCN(c2ncc(-c3cc(Cl)cc(Cl)c3Cl)c(N)n2)CC1` [Compound 30, 4-Amino-2-(4-isopropyl-1-piperazinyl)-5-(2,3,5-trichlorophenyl)pyrimidine], the results for the IC50 in series [1] and in series [2] were 100 µM and < 10 µM, respectively.
On the same counts, the results for `CCN1CCN(c2nc(N)c(-c3cc(Cl)cc(Cl)c3)c(C(F)(F)F)n2)CC1` [Compound 32, 4-Amino-2-(4-ethyl-1-piperazinyl)-5-(3,5-dichlorophenyl)-6-trifluoromethyl pyrimidine] are > 100 µM and 2.43 µM.
The like results for `Cc1nc(N2CCN(C)CC2)nc(N)c1-c1cc(Cl)c(Cl)c(Cl)c1` [Compound 4, 4-Amino-2-(4-methyl-1-piperazinyl)-6-methyl-5-(3,4,5-trichlorophenyl)pyrimidine] were, in that order, 100 µM and < 10 µM.
Consider `Cc1nc(N)nc(N)c1-c1c(Cl)ccc(Cl)c1Cl` [Compound 2, 2,4-Diamino-6-methyl-5-(2,3,6-trichlorophenyl)pyrimidine], for which the figures for the IC50 in series [1] and in series [2] were > 100 µM and < 10 µM, respectively.
As for `Cc1nc(N)nc(N)c1-c1cc(Cl)cc(Cl)c1[N+](=O)[O-]` [Compound 19, 2,4-Diamino-5-(3,5-dichloro-2-nitrophenyl)-6-methyl-pyrimidine], the IC50 is 5.56 µM in series [1] and < 10 µM in series [2].
On to `Nc1nc(N)c(-c2cc(Cl)cc(Cl)c2)c(C(F)(F)F)n1` [Compound 1, 2,4-Diamino-5-(3,5-dichlorophenyl)-6-trifluoromethyl pyrimidine], for which the IC50 was 4.59 µM in series [1] and < 10 µM in series [2].
Take `CCN1CCN(c2ncc(-c3cc(Cl)cc(Cl)c3Cl)c(N)n2)CC1` [Compound 29, 4-Amino-2-(4-ethyl-1-piperazinyl)-5-(2,3,5-trichlorophenyl)pyrimidine]: the figures for the IC50 in series [1] and in series [2] were > 100 µM and 2.56 µM, respectively.
On to `Nc1ncc(-c2cc(Cl)c(Cl)c(Cl)c2Cl)c(N)n1` [Compound 15, 2,4-Diamino-5-(2,3,4,5-tetrachlorophenyl)pyrimidine], for which the IC50 is > 100 µM in series [1] and < 10 µM in series [2].
Consider `Nc1ncc(-c2cc(Cl)c(N)c(Cl)c2)c(N)n1` [Compound 25, 2,4-Diamino-5-(3,5-dichloro-4-aminophenyl)pyrimidine], for which the IC50 in series [1] was 0.034 µM; in series [2] it was > 10 µM.
Regarding `Cc1nc(N)nc(N)c1-c1cc(Cl)c(Cl)c(Cl)c1` [Compound 5, 2,4-Diamino-5-(3,4,5-trichlorophenyl)-6-methyl pyrimidine], the results for the IC50 in series [1] and in series [2] were < 100 µM and < 10 µM, respectively.
In the case of `Nc1nc(N)c(-c2cc(Cl)c(N)c(Cl)c2)c(C(F)(F)F)n1` [Compound 27, 2,4-Diamino-5-(3,5-dichloro-4-aminophenyl)-6-trifluoromethyl pyrimidine], the results for the IC50 in series [1] and in series [2] were 1.54 µM and 10 µM, respectively.
As to `CN1CCN(c2nc(N)c(-c3cc(Cl)cc(Cl)c3)c(C(F)(F)F)n2)CC1` [Compound 14, 4-Amino-5-(3,5-dichlorophenyl)-2-(4-methyl-1-piperazinyl)-6-trifluoromethyl pyrimidine], the IC50 was > 100 µM in series [1] and 0.137 µM in series [2].
